Data set [1] deals with mouse model intratibially transplanted with a PC-3 human prostate cancer cell line. In words: Abnormal bone formation and bone resorption in mouse model intratibially transplanted with PC-3 cells (μCT). The class given is in vivo. The settings on record: PC-3 in mouse tibia, 200 mg/kg/day orally every day for 10 days. The procedure: Inhibitory Effect on the Abnormal Bone Formation and Bone Resorption in the Mouse Model Intratibially Transplanted with a PC-3 Human Prostate Cancer Cell Line
The PC-3 human prostate cancer cell line was transplanted in the mouse tibia at 2×10^6 cells/15 μL. On the following day of transplantation, the mice were grouped so that the average body weight of the mice in each group was equal, and the compound IA was administered orally at 200 mg/kg/day every day for 10 days. On Day 11 after transplantation, the graft site was imaged by μCT and bone lesions were evaluated.

Data set [2] concerns mouse model intratibially transplanted with an A549-luc-BM1 human lung cancer cell line. Put plainly: Abnormal bone formation and bone resorption in mouse model intratibially transplanted with A549-luc-BM1 cells (μCT). Particulars: A549-luc-BM1 in mouse tibia. The format is in vivo. An excerpt:
Inhibitory Effect on the Abnormal Bone Formation and Bone Resorption in the Mouse Model Intratibially Transplanted an A549-Luc-BM1 Human Lung Cancer Cell Line The A549 human lung cancer cell line in which the luciferase gene was transfected was transplanted in the left ventricle of nude mice, whereby the A549-luc-BM1 lung cancer cell line, which selectively metastasizes to and proliferates in the bone, was established. The cells thus obtained were transplanted in the mouse tibia at 2×10^6 cells/15 μL. On Day 7 after transplantation, the luciferase activity in the graft site was measured by an in-vivo imaging system. Subsequently, the mice were grouped so that the average luciferase activity of each group was equal, and the compound IA was administered orally at 200 mg/kg/day every day for 28 days. The treatment control group received subcutaneous administration of zoledronic acid, which is the third-generation bisphosphonate preparation, at 0.2 mg/kg/day twice a week. For the evaluation of bone lesions, the graft site was imaged by μCT on Day 36 after transplantation.

In the case of `CNC(=O)c1cc2c(Oc3ccc(NC(=S)NC(=O)Cc4ccccc4)cc3F)ccnc2cc1OC` [Compound IA, 4-[2-fluoro-4-[[[(2-phenylacetyl)amino]thioxomethyl]amino]-phenoxy]-7-methoxy-N-methyl-6-quinolinecarboxamide], in data set [1], the “bone mass (inhibition of accelerated metabolic bone destruction and formation of abnormal brittle bone)” value is recorded as “maintained a normal level of bone mass”; the “death and body weight reduction” value was “without causing death or reducing body weight”. In data set [1] (μCT on Day 11 after transplantation), the “abnormal bone formation in the bone at the graft site (μCT, FIG. 1)” value is recorded as “evidently inhibited the abnormal bone formation”. Besides, in data set [2] (200 mg/kg/day orally for 28 days), the “inhibitory effect on abnormal bone metabolism (bone resorption and bone formation) compared with zoledronic acid” value is “better inhibitory effect on abnormal bone metabolism (bone resorption and bone formation) than zoledronic acid”. In addition, the “bone destruction and deformation at the graft site (μCT, FIG. 2)” value in data set [2] (compound IA 200 mg/kg/day orally for 28 days, zoledronic acid 0.2 mg/kg/day s.c. twice a week, μCT on Day 36) is “remarkably inhibited bone destruction and deformation”.

The values above are taken from US9149471B2, “Therapeutic agent for osteoporosis” (NATIONAL UNIV. CORP. TOKYO UNIV. OF AG. AND TECH, priority 2013, dated 2015).
